# Columns and labels:
# crude AD brain extract = test: Seeding by crude AD brain extract in tau biosensor cells, Ferumoxytol conjugates, no pre-incubation; format: cell-based, human; conditions: mixed with extract and immediately transfected
# Description: (A) Seeding by crude AD brain extract measured in tau biosensor cells that were co-transfected with nanoparticles coupled to EGCG by linkers of varying length. (B-C) Negative-stain electron micrographs of EGCG-conjugated and non-conjugated nanoparticles. Nanoparticle coupled with EGCG analog 5c (B) cluster with fibrils of AD-tau. No clustering is seen between non-conjugated nanoparticles and AD-tau fibrils (C).
# We tested the activity of Ferumoxytol conjugated EGCG analogs using the biosensor cell assay described above, except we omitted the pre-incubation step such that our assay more closely resembled the scenario of therapeutic intervention, for which there is no pre-incubation period. Nanoparticle conjugated EGCG derivative was mixed with crude AD brain extract and immediately transfected into tau biosensor cells.
# AD crude brain extracts = test: Seeding by crude AD brain extract pre-treated with inhibitor, tau biosensor cells (Example 5); format: cell-based, human; conditions: 10 μM final on cells, pre-incubated 16-18 hours
# Description: (A) Seeding by crude AD brain extract pre-treated with EGCG or experimental linker-conjugated analogs, as indicated. Inhibitor activity is read-out by measuring seeding in tau biosensor cells. Seeding is taken as a proxy for the fibril load that is contained within the AD crude brain extracts. Reduction in fibril load following treatment with experimental linker-conjugated analogs of EGCG reduces prion-like seeding by AD-tau nearly as effectively as EGCG itself. (B) Representative fluorescence images of tau biosensor cells experiments from A. Intracellular aggregates seeded by crude AD brain extracts are identified as puncta (green dots in the “No inhibitor” treated sample, left fluorescence micrograph). Inhibitor treatment reduces the number of puncta (right fluorescence micrograph). The number of puncta as a function of inhibitor pre-treatment is plotted in A.
# We next tested if the D-ring site of triazole-linked amino PEGylation would interfere with tau fibril disaggregation observed for EGCG. […] Crude extract of autopsied brain tissue of a donor with AD (prepared as described in the SI) were pre-incubated with inhibitors (10 μM final concentration on cells) for 16-18 hours and resulting homogenates were added to the cells for imaging 3 days later.
# tau-K18+ monomer = molecular target: T1, tau-K18+ monomer (Homo sapiens, UniProt P10636); test: ThT aggregation kinetics assay; format: biochemical; conditions: 20 μM tau-K18+ monomer, equimolar inhibitor
# T1 construct: Human Tau tau-K18+(residues Q244-E380 of 4R tau); made in house; host or cells: E. coli BL21-Gold, pNG2 vector
# T1 sequence (P10636 561-697): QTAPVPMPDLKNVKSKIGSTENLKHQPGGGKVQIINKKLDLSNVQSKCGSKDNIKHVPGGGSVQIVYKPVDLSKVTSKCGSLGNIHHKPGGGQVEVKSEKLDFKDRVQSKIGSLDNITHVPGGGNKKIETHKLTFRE
# Procedure: (§1) (a) Isothermal titration calorimetry (ITC) of 750 μM EGCG into 75 μM recombinant tau-K18+ fibrils. The binding isotherm was fit using a standard 1 site binding model. (b) ThT assay showing the effect EGCG or negative control, doxycycline, have on the aggregation of 20 μM tau-K18+ monomer^33, a construct that contains all of the residues that are observed in the AD tau fibril core^7,9. Note the sudden drop in ThT signal at 10 hrs (marked by a red arrow) for the sample containing EGCG. (c) Negative stain electron micrographs of 75 μM recombinant tau-K18+ fibrils prior to incubation with EGCG (top) or following 1 or 3 hour incubation with a two-fold molar excess of EGCG at room temperature, as indicated. (d) As in c except EGCG micrographs of tau are of fibrils purified from AD brain tissue and EGCG treatments were carried out at a concentration of 100 μM for a 3 hour or overnight duration at 37° C., as indicated.
# Concentrated tau-K18+ was diluted into PBS buffer (pH 7.4) to a final concentration of 20 μM with an equimolar ratio of indicated small molecule inhibitor. […] ThT fluorescence was measured with excitation and emission wavelengths of 440 and 480 nm, and averaged curves were generated from triplicate measurements as indicated in the figure legend. […]
# [1] = molecular target: T2, recombinant tau-K18+ fibrils (Homo sapiens, UniProt P10636); test: Negative stain electron microscopy of recombinant tau fibrils; conditions: 75 μM fibrils, two-fold molar excess of EGCG, 3 hr, room temperature
# T2 sequence (P10636 561-697): as above
# Procedure: as §1
# [2] = test system: crude brain extracts from donors with PSP; test: Inhibition of seeding by crude PSP brain extracts in tau biosensor cells; conditions: 10 μM, N=7 donors
# Procedure: (§2) (a) Seeding following overnight preincubation of AD brain purified tau fibrils with a final inhibitor concentration of 10 μM. Seeding was measured 3 days after transfecting biosensor cells with fibril-inhibitor complexes. […] Error bars show the standard deviation of triplicate measurements. […] Seeding (expressed as 10 power) was measured as in a, and IC50 values were calculated from dose-response plots. […] Each column represents the inhibitor response of a different donor. Inhibitor concentrations were 10 μM. Responses to inhibitors were normalized to seeding in the absence of inhibitor, abbreviated “No Inh”, and normalized seeding values for each inhibitor were plotted from maximal inhibitor response (low fractional seeding, left) to minimal response (seeding approaching a value of 1.0, right) for each of the indicated inhibitors.
# (§3) After twenty minutes, 10 μl of fibrils were added to 90 μl of tau biosensor cells. The number of seeded aggregates was determined by imaging the entire well of a 96-well plate in triplicate using a Celigo Image Cytometer (Nexcelom) in the YFP channel. Aggregates were counted using ImageJ^45 by subtracting the background fluorescence from unseeded cells and then counting the number of peaks with fluorescence above background using the built-in Particle Analyzer. […]
# PHFE2 fibrils = PHFE2 fibrils (Homo sapiens, UniProt P10636); test: ThT measurement of PHFE2 peptide fibrils; conditions: 5 mM EGCG, 30 mM fibrils, 30 min incubation
# Procedure: (c) ThT signal of fibrils formed from PHFE2 peptide without EGCG, or following 30 min incubation. Error bars show the standard deviation of triplicate measurements.
# Fibrils were grown at 37° C. in an orbital shaker with shaking at 350 rpm for 3-4 weeks. Solutions were removed from shaking and heat upon appearance of fibrils, confirmed by negative stain EM. For ThT experiments, fibrils were diluted to 30 mM in PBS, and ThT was added to a final concentration of 40 μM. EGCG was added from a concentrated stock to a final concentration of 5 mM where indicated. ThT measurements were carried out as described above, except readings were taken from a 384-well plate with a volume of 35 μl.
# [3] = test system: tau fibrils purified from AD brain; test: Inhibition of seeding in tau-K18 biosensor cells, AD brain purified tau fibrils as seeds; conditions: 10 μM inhibitor, overnight preincubation, seeding measured 3 days after transfection
# Procedure: as §2, §3
# [4] = test system: crude brain extracts from donors with AD; test: Inhibition of seeding by crude AD brain extracts in tau biosensor cells; conditions: 10 μM
# Procedure: as §2, §3
# [5] = molecular target: fibrils of recombinant tau40 (Homo sapiens, UniProt P10636); test: EGCG dose dependence on seeding in tau biosensor cells, fibrils of recombinant tau40 as seeds
# fibrils of recombinant tau40, sequence (P10636 1-441 isoform P10636-8): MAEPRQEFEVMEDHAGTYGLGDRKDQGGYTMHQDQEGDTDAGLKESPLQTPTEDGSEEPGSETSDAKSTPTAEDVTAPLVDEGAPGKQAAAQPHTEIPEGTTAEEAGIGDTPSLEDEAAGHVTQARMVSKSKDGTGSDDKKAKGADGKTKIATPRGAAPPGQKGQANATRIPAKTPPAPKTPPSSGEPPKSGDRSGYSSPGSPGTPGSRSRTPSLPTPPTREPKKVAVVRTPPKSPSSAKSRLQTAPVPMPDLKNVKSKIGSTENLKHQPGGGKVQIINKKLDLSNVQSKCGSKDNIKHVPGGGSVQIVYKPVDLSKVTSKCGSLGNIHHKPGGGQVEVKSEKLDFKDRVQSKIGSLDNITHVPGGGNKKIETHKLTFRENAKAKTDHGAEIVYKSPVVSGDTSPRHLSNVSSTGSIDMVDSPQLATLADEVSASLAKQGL
# Procedure: Error bars show the standard deviation of triplicate measurements. […] (e) EGCG dose dependence on seeding by fibrils of recombinant tau40. Seeding (expressed as 10 power) was measured as in a, and IC50 values were calculated from dose-response plots.
# After twenty minutes, 10 μl of fibrils were added to 90 μl of tau biosensor cells. The number of seeded aggregates was determined by imaging the entire well of a 96-well plate in triplicate using a Celigo Image Cytometer (Nexcelom) in the YFP channel. Aggregates were counted using ImageJ^45 by subtracting the background fluorescence from unseeded cells and then counting the number of peaks with fluorescence above background using the built-in Particle Analyzer. The number of aggregates was normalized to the confluence of each well, and dose-response plots were generated by calculating the average and standard deviations from triplicate measurements. For high quality images, cells were photographed on a ZEISS Axio Observer D1 fluorescence microscope using the YFP fluorescence channel.
# [6] = molecular target: T2, recombinant tau-K18+ fibrils; test: Isothermal titration calorimetry (ITC); conditions: 750 μM EGCG into 75 μM fibrils, 1 site binding model
# Procedure: as §1
# Human Tau tau-K18+(residues Q244-E380 of 4R tau) was expressed in a pNG2 vector in BL21-Gold E. coli cells grown in LB to an OD600=0.8. Cells were induced with 0.5 mM IPTG for 3 hours at 37° C. and lysed by sonication in 20 mM MES buffer (pH 6.8) with 1 mM EDTA, 1 mM MgCl2, 1 mM DTT and HALT protease inhibitor before addition of NaCl 500 mM final concentration. […]
# [7] = test system: tau fibrils purified from AD brain tissue; test: Negative stain electron microscopy of AD brain-derived tau fibrils; set-up: species or system human; conditions: 100 μM EGCG, overnight, 37° C.
# Procedure: as §1
# To prepare specimens of AD brain-derived tau fibrils for structural studies, we examined negatively stained EM grids of purified tau fibrils from the frontal cortex of AD donor 1 (FIG. 1a) at various times following incubation with EGCG. AD brain-derived tau fibrils were more robust than recombinant tau fibrils and disaggregation was accelerated by incubation at 37° C. […]
compound,measurement,setting,value
"NCCOCCn1cc(COc2c(O)cc(C(=O)O[C@@H]3Cc4c(O)cc(O)cc4O[C@@H]3c3cc(O)c(O)c(O)c3)cc2O)nn1 [Compound 5a, (2R,3R)-5,7-dihydroxy-2-(3,4,5-trihydroxyphenyl)chroman-3-yl 4-((1-(2-(2-aminoethoxy)ethyl)-H-1,2,3-triazol-4-yl)methoxy)-3,5-dihydroxybenzoate]","inhibition of seeding by crude AD brain extract, Ferumoxytol conjugated analogs",crude AD brain extract,< 50%
"NCCOCCOCCOCCn1cc(COc2c(O)cc(C(=O)O[C@@H]3Cc4c(O)cc(O)cc4O[C@@H]3c3cc(O)c(O)c(O)c3)cc2O)nn1 [Compound 5c, (2R,3R)-5,7-dihydroxy-2-(3,4,5-trihydroxyphenyl)chroman-3-yl 4-((1-(2-(2-(2-(2-aminoethoxy)ethoxy)ethoxy)ethyl)-H-1,2,3-triazol-4-yl)methoxy)-3,5-dihydroxybenzoate]",inhibition of seeding by AD brain extracts compared with EGCG,AD crude brain extracts,potency nearly on par with EGCG itself
O=C(O[C@@H]1Cc2c(O)cc(O)cc2O[C@@H]1c1ccc(O)c(O)c1)c1cc(O)c(O)c(O)c1 [ECG],inhibition of seeding by AD brain extracts compared with EGCG,AD crude brain extracts,inhibit seeding as well as the linker-conjugated analogs
"O=C(O[C@@H]1Cc2c(O)cc(O)cc2O[C@@H]1c1cc(O)c(O)c(O)c1)c1cc(O)c(O)c(O)c1 [EGCG, (−)-epigallocatechin gallate]",ThT signal of fibrils formed in the presence of inhibitor,tau-K18+ monomer,abruptly fell after reaching a plateau at 10 hr
same,lag time of tau aggregation (ThT),tau-K18+ monomer,no shift in the lag time
same,disaggregation of recombinant tau fibrils (EM),[1],virtually vanish
same,blocking of seeding by crude PSP brain extracts,[2],near perfect efficacy
same,inhibition of seeding by crude PSP brain extracts,[2]; all patient samples,at least 50%
same,ThT signal of PHFE2 fibrils after addition of inhibitor,PHFE2 fibrils,eliminated nearly any measurable ThT signal
same,inhibition of seeding by tau fibrils purified from AD brain,[3],most effective inhibitors of seeding
same,fractional seeding by AD brain samples,"[4]; 15 AD crude brain extracts, normalized to no inhibitor",zero
same,inhibition of seeding by crude AD brain extracts,"[4]; N=15 donors, all patient samples",at least 50%
same,IC50,[5],0.4 µM
same,stoichiometry N (ITC),[6],0.86
same,Kd,[6]; read-out: affinity (ITC),1.6 µM
same,disaggregation of AD brain-derived tau fibrils (EM),[7],most of the AD brain-derived tau fibrils are lost
